Assay results taken from ChEMBL document CHEMBL5131559, “Discovery and Preclinical Profiling of GSK3839919, a Potent HIV-1 Allosteric Integrase Inhibitor” (ACS Med Chem Lett, 2022).

Legend:
[1] = Cytotoxicity against human MT2 cells; format: toxicity, cell-based
[2] = system: Human immunodeficiency virus 1; experiment: Antiviral activity against recombinant HIV1 NLRep-Rluc harbouring polymorphic T124/T125 integrase infected in human MT-2 cells assessed as inhibition of virus growth in presence of fetal bovine serum by measuring luciferase activity after 4 days; format: functional, organism-based; details: Human immunodeficiency virus 1, NLRep, MT2, 96 h
[3] = system: Human immunodeficiency virus 1; experiment: Antiviral activity against recombinant HIV1 NLRep-Rluc harbouring polymorphic T124/T125 integrase infected in human MT-2 cells assessed as fold change in inhibition of virus growth in presence of fetal bovine serum by measuring luciferase activity after 4 days; format: functional; parameters: reference not given here; details: time 4 day
[4] = Metabolic stability in human liver microsomes assessed as parent compound disappearance by measuring half life at 0.5 uM in presence of NADPH by LC-MS/MS analysis; format: ADME, Microsome
[5] = system: Human immunodeficiency virus 1; experiment: Antiviral activity against recombinant HIV1 NLRep-Rluc harbouring polymorphic N124/A125 integrase infected in human MT-2 cells assessed as inhibition of virus growth in presence of fetal bovine serum by measuring luciferase activity after 4 days; format: functional, organism-based; details: Human immunodeficiency virus 1, NLRep, MT2, 96 h
[6] = Clearance in Sprague-Dawley rat at 1 mg/kg, iv by LC-MS/MS analysis; format: ADME, organism-based; details: in vivo
[7] = AUC (0 to infinity) in Sprague-Dawley rat at 5 mg/kg, po by LC-MS/MS analysis; format: ADME, organism-based; parameters: time infinity, dose 5 mg/kg, route po; details: in vivo
[8] = Oral bioavailability in Sprague-Dawley rat at 5 mg/kg by LC-MS/MS analysis; format: ADME, organism-based; details: in vivo

Compound | CC50 [1] | EC50 [2] | fold change (FC) [3] | half-life at 0.5 µM [4] | EC50 [5] | clearance [6] | AUC(0-inf) [7] | bioavailability [8]
Cc1nc(C)c([C@H](OC(C)(C)C)C(=O)O)c(N2CCC(C)(C)CC2)c1C1=CCN(CCCc2ccc(F)cc2)CC1 | ≥ 22000 nM | 7.6 nM | 4.8 | 35.5 min | – | – | – | –
Cc1nc(C)c([C@H](OC(C)(C)C)C(=O)O)c(N2CCC(C)(C)CC2)c1-c1ccc2c(c1)CCN(Cc1cccc(F)c1F)C2 | ≥ 24000 nM | 4.2 nM | – | – | 13.6 nM | 8.1 mL/min/kg | 8.4 µM·h | 50%
Cc1nc(C)c([C@H](OC(C)(C)C)C(=O)O)c(N2CCC(C)(C)CC2)c1-c1ccc2c(c1)CCN(Cc1ccc(F)cc1)C2 | ≥ 22000 nM | 5.9 nM | 3.7 | 55 min | – | – | – | –
Cc1nc(C)c([C@H](OC(C)(C)C)C(=O)O)c(N2CCC(C)(C)CC2)c1-c1ccc2c(c1)CCN(Cc1cccc(F)c1C)C2 | ≥ 24000 nM | 2.6 nM | – | – | 8.1 nM | 4 mL/min/kg | 23.2 µM·h | 64%
Cc1nc(C)c([C@H](OC(C)(C)C)C(=O)O)c(N2CCC(C)(C)CC2)c1-c1ccc2c(c1)CCN(c1ncnc3c1cnn3C)C2 | ≥ 17000 nM | 2.9 nM | – | – | 7 nM | 3.6 mL/min/kg | 36.2 µM·h | 95%
Cc1nc(C)c([C@H](OC(C)(C)C)C(=O)O)c(N2CCC(C)(C)CC2)c1-c1ccc2c(c1)CCN(c1ncnc3c1oc1ccccc13)C2 | ≥ 17000 nM | 1.5 nM | – | – | 3.4 nM | 0.5 mL/min/kg | 226 µM·h | 72%
Cc1nc(C)c([C@H](OC(C)(C)C)C(=O)O)c(N2CCC(C)(C)CC2)c1-c1ccc(OCCc2ccc(F)cc2)nc1 | ≥ 22000 nM | 12.3 nM | 7.2 | > 120 min | – | – | – | –
Cc1cccc(F)c1CN1CCc2cc(-c3c(C)nc(C)c([C@H](OC(C)(C)C)C(=O)O)c3N3CCC(C)(C)CC3)ccc2C1 | ≥ 24000 nM | 5.6 nM | – | – | 5.3 nM | 5.8 mL/min/kg | 16 µM·h | 70%
Cc1nc(C)c([C@H](OC(C)(C)C)C(=O)O)c(N2CCC(C)(C)CC2)c1-c1ccc2c(c1)CCN(Cc1ccc(F)cc1F)C2 | ≥ 24000 nM | 2.5 nM | – | – | 5.4 nM | 20.1 mL/min/kg | 7.3 µM·h | > 100%
Cc1nc(C)c([C@H](OC(C)(C)C)C(=O)O)c(N2CCC(C)(C)CC2)c1-c1cnc(OCCc2ccc(F)cc2)nc1 | ≥ 22000 nM | 9 nM | 4.8 | 22 min | – | – | – | –
